Consider 5 molecules from patent publication US6627732B1, “Glutathione derivatives and their dosage forms” (Teijin Limited, priority 1998, dated 2003).

Series [1] deals with swine liver esterase. The series can be described thus: Decomposition of glutathione derivatives by swine liver esterase (physiological stability). The series is classed as in vitro ADME. Particulars: BSA/D-PBS pH 7.4, 196-244 μg/ml. The method, then:
(§1) (1) Bovine serum albumin (hereinafter referred to as BSA), Dulbecco's phosphate buffered saline (hereinafter referred to as D-PBS), swine liver esterase, and rabbit liver esterase were purchased from Sigma, 6-week old male SD rats were purchased from Nippon SLC, and 12-week old or older male Japanese white rabbits were purchased from Ichikawaya. On the day of the incubation experiment described below, blood was drawn from the animals in the presence of heparin, and plasma was separated therefrom for use. Human plasma was obtained from normal healthy males after obtaining their consent.
(§2) (2) The glutathione derivatives described in the Examples and Comparative Examples of the present invention were incubated for a fixed time in an enzyme solution having the following composition. Acetonitrile was added to the reaction mixture to inactivate the enzyme thereby to stop the reaction. The concentration of the glutathione derivatives in the deproteinized supernatant was measured by HPLC. For each time point of the esterase enzyme experiment, the mean values from two measurement or more were determined, and for the rats and rabbits the mean values of plasma samples from three individuals were determined. For some of the experiment data, changes with time of percentages relative to initial concentration of the glutathione derivative are shown in FIGS. 2 to 4.
(§3) Swine liver esterase and rabbit liver esterase experiment
(§4) 30 mg-BSA/ml-D-PBS (pH 7.4): 36 to 45 parts
(§5) Swine or rabbit liver esterase/D-PBS: 4-5 parts
(§6) 10 mg-glutathione derivative/ml-ethanol: one part (the final concentration in the reaction mixture is 196-244 μg/ml)

Series [2] has as its system rabbit liver esterase. The series can be described thus: Decomposition of glutathione derivatives by rabbit liver esterase (physiological stability). In kind it is in vitro ADME. Particulars: BSA/D-PBS pH 7.4, 196-244 μg/ml. The method, then: as §1, §2, §3, §4, §5, §6
Series [3] is described as follows: Stability in rabbit plasma. The method, then:
as §1, §2
Rat, rabbit, and human plasma
Heparinized plasma: 30 to 40 parts
10 mg-glutathione derivative/ml-ethanol: one part (the final concentration in the reaction mixture is 250-323 μg/ml)

The nature of series [4]: Pharmacokinetics after intravenous administration to rabbits, 2-compartment model (Example 25). In kind it is in vivo, rabbit. As to conditions: iv auricular vein 2 ml/kg, fat emulsion (Comparative Ex. 1: HPCD/glucose solution). An excerpt:
For the glutathione derivative of the present invention having a long-chain ester having 12 carbons or more and the glutathione derivatives of the conventional technology of Comparative Examples 1 and 2, kinetics in the blood were compared in rabbits that are a species having allow esterase activity in the blood.
(1) Male Japanese white rabbits, 12-week old or older, were purchased from Ichikawaya, and those rabbits that became 15-week old or older and whose body weight reached about 3 kg were used for the experiment. During the period up to the experiment, the animals were allowed free access to the animal feed and drinking water and were kept at a temperature of 24±2° C. and a humidity of 55±5%.
(2) The glutathione derivative having a long-chain ester of 12 carbons or more and the glutathione derivative of Comparative Example 2 were prepared at 20-200 mg/ml in a mixture of ethanol or ethanol:benzyl alcohol, which was mixed with the fat emulsion just prior to use, and was filtered with a 1.2 μm filter to obtain a liquid for intravenous administration. On the other hand, the glutathione derivative of Comparative Example 1 was dissolved in an aqueous solution of 6%-hydroxypropyl-β-cyclodextrin/5%-glucose at 15 mg/ml to obtain an administration liquid.
(3) The administration liquid of the glutathione derivative obtained in (2) at a dose of 2 ml/kg was rapidly infused into the left auricular vein of the rabbits under no anesthesia and under restraint at a rate of 1 ml/min. Each glutathione derivative was given to three or more rabbits. At 5, 10, 15, 30, 60, 120, and 240 minutes after the completion of the administration, 1 ml of the blood was drawn from the right auricular vein in the presence of heparin, which was immediately cooled on ice. Plasma was obtained by centrifuging the blood, 1-2 volume parts of acetonitrile was added to deproteinize the supernatant, which was filtered by a 0.5 μm filter. The supernatant of the filtrate was quantitated by HPLC.

Series [5] relates to rat models of suppressed hematopoietic function by 5-FU administration. Description: Ratio of segmented neutrophils in rat models of suppressed hematopoietic function by 5-FU (Example 27). In kind it is in vivo. Particulars: 5-FU rats. The method, then: (1) The animals used are the same as in Example 26. The keeping condition was a temperature of 23±2° C. and a humidity of 55±15%.
(2) The creation of the 5-FU administration model, the administration of test substances, and the blood collection schedule were carried out in a similar manner to Example 26. Hematological tests were carried out using the Toa multi-channel automatic cell counter K-4500 or Toa Sysmex CC-180A automatic cell counter, differential counts of white blood cells were carried out by May-Giemsa stain followed by microscopic examination, reticulocytes were counted by the Brecher method.
(3) Using the same schedule as in Example 26, the negative control group that only received the fat emulsion after 5-FU administration, the group that received the glutathione derivative of Example 4 at 30 mg/kg-body weight/day as a test substance together with the fat emulsion, the group that similarly received the glutathione derivative of Example 1 at 10 or 30 mg/kg-body weight/day, and the group that received the glutathione derivative of Example 7 at 30 or 60 mg/kg-body weight/day were studied.

For series [6] the test system is unchanged. Description: Recovery of neutrophil counts in rat models of suppressed hematopoietic function by 5-FU (Example 26). Particulars: 5-FU rats; 10 μg/kg-body weight/day, days 2-10; day 4 and from day 8. The series is classed as in vivo. An excerpt:
Regarding the effect of promoting the recovery of neutrophil counts in rat models of suppressed hematopoietic function by 5-fuluorouracil administration, statistical significance was compared to the control group to compare the pharmaceutical composition containing Example 4 of the present invention as an active ingredient with the pharmaceutical composition of the conventional technology of Comparative Example 1 and granulocyte colony-stimulating factor (G-CSF).
(1) Animals used and the keeping condition: Male SD rats, 6-week old, purchased from Nippon SLC were used. The animal feed (manufactured by Oriental Yeast Co., Ltd.) and drinking water (well water treated with 0.4±0.2 ppm hypochlorous acid) were given ad libitum during the period of the experiment. The animals were housed in a hanging-type rat cage (manufactured by Nippon Cage K.K.) and kept at a temperature of 24±2° C. and a humidity of 55±5%.
(2) Creation of rat models of suppressed hematopoietic function by 5-FU administration; Creation of rat models of suppressed hematopoietic function by 5-FU (Kyowa Hakko Kogyo Co. Ltd.) administration was carried out based on the method of Akamatsu et al. (Yakuri to Chiryo(Pharmacology and Therapy), 18. (Suppl. 9), 317-356 (1990)). Thus, on the first day of the experiment, 5-FU at 50 mg/kg-body weight (dosage volume is 1 ml/kg-body weight) or the same amount of physiological saline (manufactured by Fuso Pharmaceuticals Industries, Ltd.) was intraperitoneally administered to the rats described in (1). On days 4, and 7-12, blood was drawn from the jugular vein and the EDTA-2K-treated blood was obtained. The blood was used to determine the neutrophil count using a general chemistry test instrument (Technicon H-1E, manufactured by Bayer-Sankyo K.K.) and the ratio of reticulocytes using a reticulocyte determination instrument (EPICS, XL-MCL, manufactured by Coulter K.K.). Blood was also drawn on day 1 of the experiment, and the values determined for the blood were used as the pre-administration values.
In the physiological saline administration group, no changes in neutrophil count were observed throughout the experiment period, whereas in the 5-FU administration group there was a reduction in neutrophil count with the lowest value observed on day 8 of the experiment, and the neutrophil count was recovered to the value before 5-FU administration or higher on day 10 of the experiment or after. The above results confirmed that rat models of suppressed hematopoietic function can be created by a single intraperitoneal administration of 5-FU at 50 mg/kg-body weight.
(3) Evaluation of Example 4 and Comparative Example 1 in the above model; To the model described in (2), the glutathione derivative of Example 4 combined with the fat emulsion at 10 to 30 mg/kg-body weight/day or the glutathione derivative of Comparative Example 1 dissolved in a physiological saline containing 2.5% hydroxypropyl-β-cyclodextrin at 50 mg/kg-body weight/day was repeatedly administered into the tail vein for 9 days from day 2 to 10 of the experiment. The recombinant human G-CSF formulation (hereinafter referred to as G-CSF, manufactured by Chugai Pharmaceutical Co., Ltd.) as the positive control at 10 μg/kg-body weight/day and the empty fat emulsion as the negative control were administered in a similar manner. […]

Setting [7] is: heparinized plasma, 250-323 μg/ml.
Setting [8] is: 30 mg/kg-body weight/day with fat emulsion.

Turning to `CCCCCCCCCCCCOC(=O)[C@@H](N)CCC(=O)N[C@@H](CSCc1ccccc1)C(=O)N[C@@H](C(=O)OCC)c1ccccc1.Cl` [Example 7, Glu(Cys(Bzl)-D-Phg-OEt)-O(Dodecyl)hydrochloride], the “Decomposition rate constant by swine liver esterase” value in series [1] was 15.2 10^−4/unit/min. The “Decomposition rate constant by rabbit liver esterase” value in series [2] is given as 21.1 10^−4/unit/min. In series [3] (setting [7]), the “Half life in rabbit plasma” value amounted to 5.38 h. Further, in series [4], the “Clearance per body weight” value is 47.5 mL/min/kg and the “Distribution volume per body weight of the central compartment” value (“Distribution volume per body weight” for short) turned out to be 0.47 L/kg. In series [5] (setting [8]), the “Recovery of segmented neutrophil counts relative to the negative control” value is given as “no changes relative to the negative control”. The “Recovery of neutrophil counts relative to the negative control” value in series [5] (60 mg/kg-body weight/day with fat emulsion, days 11 and 12) is given as “tendency of promoting the recovery of neutrophil counts”.

As for `CCCCCCCCCCCCCCOC(=O)[C@@H](N)CCC(=O)N[C@@H](CSCc1ccccc1)C(=O)N[C@@H](C(=O)OCC)c1ccccc1.Cl` [Example 6, Glu(Cys(Bzl)-D-Phg-OEt)-O(Tetradecyl)hydrochloride], the “Decomposition rate constant by swine liver esterase” value in series [1] is 2.61 10^−4/unit/min. For the same molecule, the “Decomposition rate constant by rabbit liver esterase” value in series [2] is listed as 5.11 10^−4/unit/min. For the same molecule, the “Half life in rabbit plasma” value in series [3] (setting [7]) is 18.07 h. Besides, in series [4], the “Clearance per body weight” value was 4.83 mL/min/kg and the “Distribution volume per body weight” value is 0.08 L/kg.

As for `CCCCCCCCCCOC(=O)[C@H](NC(=O)[C@H](CSCc1ccccc1)NC(=O)CC[C@H](N)C(=O)OCC)c1ccccc1.Cl` [Comparative Example 4, Glu(Cys(Bzl)-D-Phg-O(Decyl))-OEt Hydrochloride, reference compound], the “Decomposition rate constant by swine liver esterase” value in series [1] is 88.5 10^−4/unit/min. Besides, in series [2], the “Decomposition rate constant by rabbit liver esterase” value is recorded as 54.2 10^−4/unit/min. For the same molecule, in series [3] (rabbit, plasma), the “Half life in rabbit plasma” value stood at 3.02 h.

For `CCCCCCCCCCCCCCCCCCOC(=O)[C@@H](N)CCC(=O)N[C@@H](CSCc1ccccc1)C(=O)N[C@@H](C(=O)OCC)c1ccccc1.Cl` [Example 1, Glu(Cys(Bzl)-D-Phg-OEt)-O(Octadecyl)hydrochloride], the “Decomposition rate constant by swine liver esterase” value in series [1] is 0.0901 10^−4/unit/min. Further, the “Decomposition rate constant by rabbit liver esterase” value in series [2] is recorded as 0.300 10^−4/unit/min. Further, in series [3] (setting [7]), the “Half life in rabbit plasma” value is 408.57 h. The “Clearance per body weight” value in series [4] was 0.5 mL/min/kg. For the same molecule, in series [4], the “Distribution volume per body weight” value came out at 0.06 L/kg. Also, the “Recovery of segmented neutrophil counts relative to the negative control” value in series [5] (10 mg/kg-body weight/day with fat emulsion) and in series [5] (setting [8]) was “tendency of promoting the recovery of segmented neutrophil counts” each time.

B1: G-CSF: recombinant human G-CSF formulation, manufactured by Chugai Pharmaceutical Co., Ltd., positive control (protein, UniProt P09919 31-207, looked up)
Granulocyte …: TPLGPASSLPQSFLLKCLEQVRKIQGDGAALQEKLVSECATYKLCHPEELVLLGHSLGIPWAPLSSCPSQALQLAGCLSQLHSGLFLYQGLLQALEGISPELGPTLDTLQLDVADFATTIWQQMEELGMAPALQPTQGAMPAFASAFQRRAGGVLVASHLQSFLEVSYRVLRHLAQP
With B1, the “Neutrophil counts relative to the negative control group” value in series [6] is “statistically significant increase in neutrophil counts”.
